Measured values published in patent publication US20260224688A1, “HELPER LIPIDS FOR NUCLEIC ACID DELIVERY” (SANOFI PASTEUR INC., priority 2023, published 2026).

Legend:
[1] = Dynamic light scattering of lipid nanoparticles (size, PDI); format: physicochemical
Experimental: (§1) Lipid nanoparticle formulations 3 were prepared by Process A at a molar ratio of 40:1.5:30:28.5 (Cationic Lipid: DMG-PEG2000: Cholesterol: Helper Lipid) with the cationic lipids and helper lipids disclosed in the tables below. The Polydispersity Index (Pdl) of lipid nanoparticles can be determined by diluting the formulation in 10% trehalose at about 0.1 mg/ml mRNA concentration and then measuring the size on Malvern zetasizer. The lipid nanoparticle size can be obtained with Malvern Zetasizer Nano-ZS.
Dynamic light scattering (DLS) measurements were performed using a Malvern Instruments Zetasizer with a backscattering detector angle of 173° and a 4-mW, 633-nm He—Ne laser (Worcestershire, UK). The samples were analyzed by diluting in 10% Trehalose and measuring the size and Poly dispersity Index (PDI) in an optical grade polystyrene cuvette.

[2] = mRNA encapsulation efficiency of lipid nanoparticles; format: physicochemical; settings: for Encapsulation efficiency (EE): LNP with cationic lipid CL-A
Text: In embodiments, the lipid nanoparticle encapsulates a nucleic acid, optionally an mRNA encoding a peptide or protein. In embodiments, the lipid nanoparticle encapsulates an mRNA encoding a peptide or protein, optionally for use in a vaccine. In embodiments, the peptide is an antigen. As used herein, the phrase “encapsulation percentage” refers to the fraction of therapeutic agent (e.g. mRNA) that is effectively encapsulated within a liposomal-based vehicle (e.g. a lipid nanoparticle) relative to the initial fraction of therapeutic agent present in the lipid phase. In embodiments, the lipid nanoparticles have an encapsulation percentage for mRNA of at least 50%. In embodiments, the lipid nanoparticles have an encapsulation percentage for mRNA of at least 55%. In embodiments, the lipid nanoparticles have an encapsulation percentage for mRNA of at least 60%. In embodiments, the lipid nanoparticles have an encapsulation percentage for mRNA of at least 65%. In embodiments, the lipid nanoparticles have an encapsulation percentage for mRNA of at least 70%. In embodiments, the lipid nanoparticles have an encapsulation percentage for mRNA of at least 75%. In embodiments, the lipid nanoparticles have an encapsulation percentage for mRNA of at least 80%. In embodiments, the lipid nanoparticles have an encapsulation percentage for mRNA of at least 85%. In embodiments, the lipid nanoparticles have an encapsulation percentage for mRNA of at least 90%. In embodiments, the lipid nanoparticles have an encapsulation percentage for mRNA of at least 95%. In embodiments, the encapsulation percentage is calculated by performing the Ribogreen assay (Invitrogen) with and without the presence of 0.1% Triton-X 100.
The lipid nanoparticles in the examples of the present invention were formulated using Process A of WO 2018/089801 (see, e.g., Example 1 and FIG. 1 of WO 2018/089801). Process A (“A”) relates to a conventional method of encapsulating mRNA by mixing mRNA with a mixture of lipids, without first pre-forming the lipids into lipid nanoparticles. In an exemplary process, an ethanolic solution of a mixture of lipids (cationic lipid, phosphatidylethanolamine, cholesterol, and polyethylene glycol-lipid) at a fixed lipid to mRNA ratio were combined with an aqueous buffered solution of target mRNA at an acidic pH under controlled conditions to yield a suspension of uniform LNPs. After ultrafiltration and diafiltration into a suitable diluent system, the resulting nanoparticle suspensions were diluted to final concentration, filtered, and stored frozen at −80° C. until use.
as §1

hEPO [3] = assay: IM EPO expression of LNPs containing new helper lipids (hEPO in serum by ELISA); format: in vivo, female BALB/cJ mice; settings: single IM injection; for 24-h EPO: serum 24 hours post injection
Experimental: Lipid nanoparticles were formulated containing the four lipid components shown below at a ratio of 40:30:28.5:1.5, complexed with a hEPO messenger RNA. • Cationic lipid, 40 mol % • Phospholipid (PEA) helper lipid, 30 mol % • Cholesterol, 28.5 mol % • DMG-PEG-2K (1,2-dimyristoyl-rac-glycero-3-methoxypolyethyleneglycol), 1.5 mol % The cationic lipid component of each formulation was selected from the compounds in the table below: […]
EPO expression studies were conducted with female BALB/cJ mice 6-8 weeks of age. Mice were dosed with […] EPO mRNA in 30 μL of LNPs by a single intramuscular (IM) injection into the gastrocnemius leg muscle. Blood samples were taken 6 and 24 hours post injection and hEPO levels were measured in the blood serum of the mice using an ELISA assay according to the manufacture's protocol. WO2022/099003 A1 also describes an in vivo assay for intramuscular administration (e.g. on page 46, paragraph [00206]).

hEPO [4] = assay: IV EPO expression of LNPs (tail vein injection); format: in vivo, female BALB/cJ mice; settings: cationic lipid CL-0137, helper lipid 30 mol %; 0.017 μg EPO mRNA tail vein; 6 hours; DOPE = 1
Experimental: Lipid nanoparticles were formulated containing the four lipid components shown below at a ratio of 40:30:28.5:1.5, complexed with a hEPO messenger RNA. • Cationic lipid CL-0137, 40 mol % • Helper lipid, 30 mol % • Cholesterol, 28.5 mol % • DMG-PEG-2K (1,2-dimyristoyl-rac-glycero-3-methoxypolyethyleneglycol), 1.5 mol %
EPO expression studies were conducted with female BALB/cJ mice 6-8 weeks of age. Mice were dosed with 0.017 μg EPO mRNA LNPs in a volume of 5 ul by a single tail vein injection. Blood samples were taken 6 hours post injection and hEPO levels were measured in the blood serum of the mice using an ELISA assay according to the manufacture's protocol.

[5] = LNP with cationic lipid CL-A, hEPO mRNA, 40:30:28.5:1.5
[6] = CL-B LNP, serum 6 hours post injection
[7] = CL-A LNP, 0.1 μg EPO mRNA in 30 μL, serum 6 hours post injection

Compound	Polydispersity Index (PDI) ([1]; LNP with cationic lipid CL-A)	Size [1, 5] [nm]	PDI ([1]; LNP with cationic lipid CL-B)	Size ([1]; LNP with cationic lipid CL-B) [nm]	PDI ([1]; LNP with cationic lipid CL-C)	Size ([1]; LNP with cationic lipid CL-C) [nm]	Encapsulation efficiency (EE) [2] [%]	EE ([2]; LNP with cationic lipid CL-B) [%]	EE ([2]; LNP with cationic lipid CL-C) [%]	6-h EPO (hEPO [3]; [6]) [ng/mL]	24-h EPO (hEPO [3]; CL-B LNP) [ng/mL]	6-h EPO (hEPO [3]; CL-C LNP) [ng/mL]	6-h EPO (hEPO [3]; CL-C LNP, (6-h)) [ng/mL]	Normalized Mean IV EPO expression (hEPO [4])	6-h EPO (hEPO [3]; [7]) [ng/mL]	PDI ([1]; LNP with cationic lipid CL-D)	Size ([1]; LNP with cationic lipid CL-D) [nm]	EE ([2]; LNP with cationic lipid CL-D) [%]	24-h EPO (hEPO [3]; CL-A LNP) [ng/mL]
CCCCCCCCCC(CCCCCCCCC)C(=O)OCC(COP(=O)(O)OCCN(C)C)OC(=O)C(CCCCCCCCC)CCCCCCCCC (stereo not shown) [Compound 9, 3-(((2 (Dimethylamino)ethoxy)(hydroxy)phosphoryl)oxy)-propane-1,2-diyl bis(2-nonylundecanoate)]	0.126	112	0.113	108.2	0.087	110.1	84	78	78	5.6	3.3	12.2	22.3	3.68	–	–	–	–	–
CCCCCCCCC(CCCCCCCC)OC(=O)CCCCCCC(=O)OC[C@@H](COP(=O)(O)OCCN(C)C)OC(=O)CCCCCCC(=O)OC(CCCCCCCC)CCCCCCCC [Compound 13]	0.048	166	0.127	141.9	0.112	98.0	94	96	93	53.8	–	–	64.4	1.47	8.348	–	–	–	–
CCCCCCCCC(CCCCC)COC(=O)CCC(=O)OCC(COP(=O)(O)OCCN)OC(=O)CCC(=O)OCC(CCCCC)CCCCCCCC (stereo not shown) [Compound 4, O,O′-(3-(((2-Aminoethoxy)(hydroxy)phosphoryl)oxy)propane-1,2-diyl) bis(2-pentyldecyl) disuccinate]	0.048	125	0.112	104.7	0.123	109.5	85	86	87	13.7	11.6	20.1	22.3	2.38	–	–	–	–	–
CCCCCCCCC(CCCCC)COC(=O)CCC(=O)OCC(COP(=O)(O)OCCN(C)C)OC(=O)CCC(=O)OCC(CCCCC)CCCCCCCC (stereo not shown) [Compound 10, O,O′-(3-(((2-(Dimethylamino)ethoxy)(hydroxy)phosphoryl)-oxy)propane-1,2-diyl) bis(2-pentyldecyl) disuccinate)]	0.046	171	0.086	95.9	0.022	89.3	90	83	84	12.9	10.4	10.3	14.8	1.72	20.227	0.129	100.5	93	10.447
CCCCCCCCC(CCCCCCCC)OC(=O)CCCCCCC(=O)OCC(COP(=O)(O)OCCN)OC(=O)CCCCCCC(=O)OC(CCCCCCCC)CCCCCCCC (stereo not shown) [Compound 6, 2-Aminoethyl (2,3-bis((8-(heptadecan-9-yloxy)-8-oxooctanoyl)oxy)propyl) phosphate]	0.066	159	0.049	119.9	0.037	108.9	90	94	94	28.4	16.2	27.1	39.9	2.67	–	0.063	131.5	94	–
CCCCCCCCCCC(CCCCCCCCCC)OC(=O)CCCCCCC(=O)OCC(COP(=O)(O)OCCN(C)C)OC(=O)CCCCCCC(=O)OC(CCCCCCCCCC)CCCCCCCCCC (stereo not shown) [Compound 19, O′1,O1-(3-(((2-(dimethylamino)ethoxy)(hydroxy)phosphoryl)oxy)propane-1,2-diyl) 8-di(henicosan-11-yl) di(octanedioate)]	0.075	136	0.095	112.7	0.078	110.6	94	93	92	28.9	–	–	12.9	2.59	11.7	–	–	–	–
CCCCCCCCCC(CCCCCCCCC)C(=O)OCC(COP(=O)(O)OCCN)OC(=O)C(CCCCCCCCC)CCCCCCCCC (stereo not shown) [Compound 3, 3-(((2-Aminoethoxy)(hydroxy)phosphoryl)oxy)propane-1,2-diyl bis(2-nonylundecanoate)]	0.045	137	0.101	116.4	0.038	111.9	65	25	88	–	–	6.3	13.4	3.32	–	–	–	–	–
CCCCCCCCC(CCCCCCCC)OC(=O)CCCCCC(=O)OCC(COP(=O)(O)OCCN(C)C)OC(=O)CCCCCC(=O)OC(CCCCCCCC)CCCCCCCC (stereo not shown) [Compound 15, O′^1,O^1-(3-(((2-(Dimethylamino)ethoxy)(hydroxy)phosphoryl)oxy)propane-1,2-diyl) 7-di(heptadecan-9-yl) di(heptanedioate)]	0.083	138	0.087	110.7	0.091	108.0	95	94	91	30	–	–	15.2	2.24	25.3	–	–	–	–
